GI50 and IC50 data for 13 molecules are collected here from ChEMBL document CHEMBL4433258, “Structure-activity relationships study of neolamellarin A and its analogues as hypoxia inducible factor-1 (HIF-1) inhibitors” (Bioorg Med Chem Lett, 2019).

A short description of data set [1]: Cytotoxicity against human HeLa cells assessed as growth inhibition incubated for 60 hrs under normoxic condition by MTT assay. The format is cell-based. A general note: Tetrazolium assays rely on reduction of a dye to a coloured formazan, in cell work by metabolically active cells.
Data set [2] can be described thus: Inhibition of HIF-1 in human HeLa cells transfected with CMV driven renilla luciferase reporter gene incubated for 1 hr under normoxic condition and 12 hrs under hypoxia condition by HRE-based dual luciferase reporter gene assay. The class given is cell-based.

In general, GI50 refers to the concentration giving 50% growth inhibition. A word on the pIC50: it is the IC50 on a negative log10 scale, so that one unit is a factor of ten.

Structures are written as SMILES. pIC50: −log10 of the molar value.

With `COc1ccc(-c2cn(C(=O)c3ccccc3)cc2-c2ccc(OC)cc2)cc1`, in data set [1], the GI50 at 60 h is greater than 100 µM. In data set [2], this molecule had a pIC50 of 4.84.
The matching figures for `COc1ccc(CCC(=O)n2cc(-c3ccc(OC)cc3)c(-c3ccc(OC)cc3)c2)cc1`: greater than 100 µM and 4.57.
Consider `O=C(c1ccccc1)n1cc(-c2ccc(O)cc2)c(-c2ccc(O)cc2)c1`, for which the GI50 at 60 h in data set [1] was 32.9 µM. The pIC50 in data set [2] was 4.77.
Consider `O=C(c1ccccc1)n1cc(-c2ccccc2)c(-c2ccccc2)c1`, for which the GI50 at 60 h in data set [1] is 67.1 µM. In addition, the pIC50 in data set [2] was 4.80.
For `COc1ccc(C(=O)n2cc(-c3ccc(OC)cc3)c(-c3ccc(OC)cc3)c2)cc1`, the GI50 at 60 h in data set [1] is greater than 100 µM. In data set [2], the pIC50 was 4.61.
For the molecule `COc1ccc(-c2cn(C(=O)C(OC)c3ccc(OC)cc3)cc2-c2ccc(OC)cc2)cc1` (stereo unspecified), the GI50 at 60 h in data set [1] is greater than 100 µM. The molecule also had a pIC50 in data set [2] of less than 4.30.
For `O=C(CCc1ccc(O)cc1)n1cc(-c2ccc(O)cc2)c(-c2ccc(O)cc2)c1`, the GI50 at 60 h in data set [1] is 51.5 µM. Moreover, the pIC50 in data set [2] was 4.83.
Take `COc1ccc(/C=C/C(=O)n2cc(-c3ccc(OC)cc3)c(-c3ccc(OC)cc3)c2)cc1`: in data set [1], the concentration for 50% growth inhibition (GI50) at 60 h was greater than 100 µM. In data set [2], this molecule gave a pIC50 of less than 4.00.
As for `COc1ccc(CC(=O)n2cc(-c3ccc(OC)cc3)c(-c3ccc(OC)cc3)c2)cc1`, the GI50 at 60 h in data set [1] was greater than 100 µM. Besides, the pIC50 in data set [2] is 4.65.
`O=C(c1ccc(O)cc1)n1cc(-c2ccc(O)cc2)c(-c2ccc(O)cc2)c1`: the GI50 at 60 h in data set [1] was 76 µM. Further, the pIC50 in data set [2] was 4.73.
The matching figures for `COc1ccc(-c2cn(C(=O)C(O)c3ccc(OC)cc3)cc2-c2ccc(OC)cc2)cc1` (stereo unspecified): 44.2 µM and 4.92.
Consider `O=C(/C=C/c1ccc(O)cc1)n1cc(-c2ccc(O)cc2)c(-c2ccc(O)cc2)c1`, for which the GI50 at 60 h in data set [1] came to 27.3 µM. The molecule also showed a pIC50 in data set [2] of 4.78.
For the molecule `O=C(Cc1ccc(O)cc1)n1cc(-c2ccc(O)cc2)c(-c2ccc(O)cc2)c1` [NEOLAMELLARIN A], the GI50 at 60 h in data set [1] is 59.5 µM. For the same molecule, the pIC50 in data set [2] is 4.97.
